Laboratory results published in patent US9505781B2, “Compositions comprising thienopyrimidine and thienopyridine compounds and methods of use thereof” (The Regents of the University of Michigan, priority 2013, dated 2016).

These compounds were tested against T1, menin-MLL interaction (Homo sapiens, UniProt O00255) (assay: biochemical).
T1 sequence (O00255 1-610): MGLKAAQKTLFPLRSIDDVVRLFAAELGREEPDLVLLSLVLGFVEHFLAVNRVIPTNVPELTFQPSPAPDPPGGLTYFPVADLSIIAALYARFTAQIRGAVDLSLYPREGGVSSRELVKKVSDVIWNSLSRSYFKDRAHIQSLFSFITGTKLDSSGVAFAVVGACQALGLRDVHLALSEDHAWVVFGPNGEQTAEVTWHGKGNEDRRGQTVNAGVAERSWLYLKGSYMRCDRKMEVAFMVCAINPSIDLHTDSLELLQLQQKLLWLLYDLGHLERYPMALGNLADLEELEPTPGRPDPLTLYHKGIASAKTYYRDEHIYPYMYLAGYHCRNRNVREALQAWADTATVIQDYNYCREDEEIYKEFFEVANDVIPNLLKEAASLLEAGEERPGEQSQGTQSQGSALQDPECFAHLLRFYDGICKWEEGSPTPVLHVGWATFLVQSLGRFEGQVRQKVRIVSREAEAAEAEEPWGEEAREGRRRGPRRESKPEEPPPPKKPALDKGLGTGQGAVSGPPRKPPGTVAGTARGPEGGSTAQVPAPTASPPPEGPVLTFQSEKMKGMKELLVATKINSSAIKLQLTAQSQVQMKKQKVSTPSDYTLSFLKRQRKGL
Excerpt: Compounds that inhibit the interaction decrease the fluorescence anisotropy which is being used as a read-out for compound screening and for IC50 determination.

| SMILES | IC50 [nM] |
| --- | --- |
| FC(F)(F)Cc1cc2c(N[C@H]3CCN(Cc4ccccc4)C[C@@H]3NCc3ccccc3)ncnc2s1 [Compound 167] | 100 to 500 |
| COc1cccc(CC(=O)N2CCN(c3ncnc4sc(CC(F)(F)F)cc34)CC2)c1 [Compound 95] | 500 to 2000 |
| COc1c(CN2CCC(Nc3ncnc4sc(CC(F)(F)F)cc34)CC2)ccc2c1cc(C#N)n2CC(N)=O [Compound 193] | < 100 |
| OCc1c(CC(F)(F)F)sc2ncnc(NC3CCN(Cc4ccccc4)CC3)c12 [Compound 112] | 100 to 500 |
| N#Cc1cc2cc(CN3CCC(Nc4ncnc5sc(CC(F)(F)F)cc45)CC3)ccc2n1Cc1nc[nH]n1 [Compound 204] | < 100 |
| O=C(CCC1CCCCC1)N1CCN(c2ncnc3sc(CC(F)(F)F)cc23)CC1 [Compound 90] | 500 to 2000 |
| FC(F)(F)Cc1cc2c(NC3CCN(Cc4ccc[nH]4)CC3)ncnc2s1 [Compound 131] | 100 to 500 |
| CC(C)CN(c1ccc(CC(=O)N2CCN(c3ncnc4sc(CC(F)(F)F)cc34)CC2)cc1)S(C)(=O)=O [Compound 101] | 500 to 2000 |
| FC(F)Oc1ccc(CN2CCC(Nc3ncnc4sc(CC(F)(F)F)cc34)CC2)cc1 [Compound 141] | 500 to 2000 |
| Cc1nc(Cn2c(C#N)cc3cc(CN4CCC(Nc5ncnc6sc(CC(F)(F)F)cc56)CC4)ccc32)cs1 [Compound 201] | < 100 |
| NCc1ccc(CN2CCC(Nc3ncnc4sc(CC(F)(F)F)cc34)CC2)cc1 [Compound 137] | 500 to 2000 |
| CS(=O)(=O)N(CC#N)c1ccc(CC(=O)N2CCN(c3ncnc4sc(CC(F)(F)F)cc34)CC2)cc1 [Compound 61] | < 100 |
| Oc1ccc(CN2CCC(Nc3ncnc4sc(CC(F)(F)F)cc34)CC2)cc1 [Compound 105, 4-((4-((6-(2,2,2-trifluoroethyl)thieno[2,3-d]pyrimidin-4-yl)amino)piperidin-1-yl)methyl)phenol] | < 100 |
| Nc1ccccc1CN1CCC(Nc2ncnc3sc(CC(F)(F)F)cc23)CC1 [Compound 113] | 100 to 500 |
| CN(C)S(=O)(=O)Nc1ccc(CC(=O)N2CCN(c3ncnc4sc(CC(F)(F)F)cc34)CC2)cc1 [Compound 51] | < 100 |
| FC(F)(F)Cc1cc2c(N[C@H]3CCN(Cc4ccccc4)C[C@@H]3NCC3CCCC3)ncnc2s1 [Compound 169] | 100 to 500 |
| FC(F)(F)c1nnc(N2CCN(c3ncnc4sc(C5CC5)cc34)CC2)s1 [Compound 28] | 500 to 2000 |
| NN(c1ncnc2sc(CC(F)(F)F)cc12)C1CCN(Cc2ccccc2)CC1 [Compound 123] | 100 to 500 |

| SMILES | IC50 [nM] |
| --- | --- |
| CN1CCC(N2CCN(c3ncnc4sc(CC(F)(F)F)cc34)CC2)CC1 [Compound 27] | 500 to 2000 |
| NS(=O)(=O)Nc1ccc(CC(=O)N2CCN(c3ncnc4sc(CC(F)(F)F)cc34)CC2)cc1 [Compound 47] | < 100 |
| N#Cc1cc2cc(CN3CCC(Nc4ncnc5sc(CC(F)(F)F)cc45)CC3)ccc2n1Cc1cscn1 [Compound 200] | < 100 |
| FC(F)(F)Cc1cc2c(N[C@H]3CCN(Cc4ccccc4)C[C@@H]3NCCc3ccccc3)ncnc2s1 [Compound 168] | 100 to 500 |
| N#Cc1cc2cc(CN3CCC(Nc4ncnc5sc(CC(F)(F)F)cc45)CC3)ccc2n1Cc1ncon1 [Compound 198] | < 100 |
| FC(F)(F)Cc1cc2c(N3CCN(c4nnc(CC5CCCC5)s4)CC3)ncnc2s1 [Compound 19] | 500 to 2000 |
| CO[C@@H](CO)Cn1c(C#N)cc2cc(CN3CCC(Nc4ncnc5sc(CC(F)(F)F)cc45)CC3)ccc21 [Compound 190] | < 100 |
| Nc1ccc(CN2CCC(Nc3ncnc4sc(CC(F)(F)F)cc34)CC2)cc1 [Compound 139] | 500 to 2000 |
| FC(c1cc2c(N3CCN(c4nnc(C(F)(F)F)s4)CC3)ncnc2s1)C(F)(F)F (stereo not drawn) [Compound 21] | 500 to 2000 |
| CCCc1cc2c(N(C)C3CCN(Cc4ccccc4)CC3)ncnc2s1 [Compound 150] | 500 to 2000 |
| O=C(COCc1ccccc1)N1CCN(c2ncnc3sc(CC(F)(F)F)cc23)CC1 [Compound 92] | 500 to 2000 |
| CN(c1ccc(CC(=O)N2CCN(c3ncnc4sc(CC(F)(F)F)cc34)CC2)cc1)S(C)(=O)=O [Compound 46] | < 100 |
| Cc1ccc(CN2CCC(Nc3ncnc4sc(CC(F)(F)F)cc34)CC2)cc1 [Compound 147] | 500 to 2000 |
| O=C1CCC(c2ccc(CC(=O)N3CCN(c4ncnc5sc(CC(F)(F)F)cc45)CC3)cc2)N1 (stereo not drawn) [Compound 80] | 100 to 500 |
| FC(F)(F)Cc1cc2c(N3CCN(c4nnc(CCc5ccccc5)s4)CC3)ncnc2s1 [Compound 42] | 500 to 2000 |
| FC(F)(F)Cc1cc2c(N3CCN(c4nnc(CCCC5CCCCC5)s4)CC3)ncnc2s1 [Compound 17] | 500 to 2000 |
| FC(F)(F)CCc1nnc(N2CCN(c3ncnc4sc(CC(F)(F)F)cc34)CC2)s1 [Compound 18] | 500 to 2000 |

Continued, values first:

| IC50 [nM] | SMILES |
| --- | --- |
| < 100 | N#Cc1cc2cc(CN3CCC(Nc4ncnc5sc(CC(F)(F)F)cc45)CC3)ccc2n1Cc1cnn(CCOCC2CC2)c1 [Compound 318] |
| < 100 | Cc1c(CN2CCC(Nc3ncnc4sc(CC(F)(F)F)cc34)CC2)ccc2c1cc(C#N)n2Cc1cc(O)n[nH]1 [Compound 331] |
| 500 to 2000 | FC(F)(F)Cc1cc2c(NCC3CCN(Cc4ccc(CN5CCOCC5)cc4)CC3)ncnc2s1 [Compound 272] |
| < 100 | COc1cc2[nH]c(C#N)cc2c(C)c1CN1CCC(Nc2ncnc3sc(CC(F)(F)F)cc23)CC1 [Compound 383] |
| < 100 | CCC(=O)N1CCN(CCn2c(C#N)cc3cc(CN4CCC(Nc5ncnc6sc(CC(F)(F)F)cc56)CC4)ccc32)CC1 [Compound 394] |
| < 100 | COc1cc2c(cc(C#N)n2Cc2cn[nH]c2)c(C)c1CN1CCC(Nc2ncnc3sc(CC(F)(F)F)cc23)CC1 [Compound 389] |
| < 100 | Cc1c(CN2CCC(Nc3ncnc4sc(CC(F)(F)F)cc34)CC2)ccc2c1cc(C#N)n2CCN1CCNC(C(N)=O)C1 (stereo not drawn) [Compound 363] |
| < 100 | N#Cc1cc2cc(CN3CCC(Nc4ncnc5sc(CC(F)(F)F)cc45)CC3)ccc2n1CC(CO)OC(F)F (stereo not drawn) [Compound 297] |
| < 100 | COCCOCC(O)(CO)Cn1c(C#N)cc2c(C)c(CN3CCC(Nc4ncnc5sc(CC(F)(F)F)cc45)CC3)ccc21 (stereo not drawn) [Compound 315] |
| < 100 | N#Cc1cc2cc(CN3CCC(Nc4ncnc5sc(CC(F)(F)F)cc45)CC3)c(F)cc2n1CC(N)=O [Compound 214] |
| 100 to 500 | N#Cc1cc2c(OC(F)F)c(CN3CCC(Nc4ncnc5sc(CC(F)(F)F)cc45)CC3)ccc2[nH]1 [Compound 408] |
| < 100 | N#Cc1cc2cc(CN3CCC(Nc4ncnc5sc(CC(F)(F)F)cc45)CC3)ccc2n1CC(O)(CO)COCC1CCCCC1 (stereo not drawn) [Compound 317] |
| < 100 | N#Cc1cc2c(Cl)c(CN3CCC(Nc4ncnc5sc(CC(F)(F)F)cc45)CC3)ccc2[nH]1 [Compound 224] |
| < 100 | Cc1c(CN2CCC(Nc3ncnc4sc(CC(F)(F)F)cc34)CC2)ccc2c1cc(C#N)n2CC1CCC(=O)NC1 (stereo not drawn) [Compound 428] |
| 100 to 500 | FC(F)(F)Cc1cc2c(NC3CCN(Cc4ccc5cc[nH]c5c4)CC3)ncnc2s1 [Compound 227] |
| < 100 | Cc1c(CN2CCC(Nc3ncnc4sc(CC(F)(F)F)cc34)CC2)ccc2c1cc(C#N)n2CCN1CCN(C(=O)CCC(F)(F)F)CC1 [Compound 342] |

| IC50 [nM] | SMILES |
| --- | --- |
| < 100 | Cc1c(CN2CCC(Nc3ncnc4sc(CC(F)(F)F)cc34)CC2)ccc2c1cc(C#N)n2CCN1CCNC(C(F)(F)F)C1 (stereo not drawn) [Compound 378] |
| < 100 | Cc1c(CN2CCC(Nc3ncnc4sc(CC(F)(F)F)cc34)CC2)ccc2c1cc(C#N)n2Cc1c[nH]nn1 [Compound 311] |
| < 100 | NS(=O)(=O)Cc1ccc(CC(=O)N2CCN(C3=NC=NC4SC(CC(F)(F)F)=CC34)CC2)c(Cl)c1 (stereo not drawn) [Compound 286] |
| < 100 | Cc1c(CN2CCC(Nc3ncnc4sc(CC(F)(F)F)cc34)CC2)ccc2c1cc(C#N)n2CC1CN(C)C(=O)CO1 (stereo not drawn) [Compound 426] |
| 500 to 2000 | CC(C)NCC(O)Cn1c(C#N)cc2cc(CN3CCC(Nc4ncnc5sc(CC(F)(F)F)cc45)CC3)ccc21 (stereo not drawn) [Compound 251] |
| < 100 | Cc1c(CN2CCC(Nc3ncnc4sc(CC(F)(F)F)cc34)CC2)ccc2c1cc(C#N)n2CC(O)CN1CCNCC1 (stereo not drawn) [Compound 358] |
| 500 to 2000 | N#Cc1cc2cc(CN3CCC(Nc4c(COCC5CCCC5)cnc5sc(CC(F)(F)F)cc45)CC3)ccc2[nH]1 [Compound 421] |
| < 100 | Cc1c(CN2CCC(Nc3ncnc4sc(CC(F)(F)F)cc34)CC2)c(O)cc2c1cc(C#N)n2Cc1cn[nH]c1 [Compound 388] |
| 100 to 500 | N#Cc1cc2cc(CN3CCC(Nc4ncnc5sc(CC(F)(F)F)cc45)CC3)ccc2n1Cc1nn[nH]n1 [Compound 240] |
| < 100 | Cc1ccc2[nH]c(C#N)cc2c1CN1CCC(Nc2ncnc3sc(CC(F)(F)F)cc23)CC1 [Compound 218] |
| < 100 | Cc1c(CN2CCC(Nc3ncnc4sc(CC(F)(F)F)cc34)CC2)ccc2c1cc(C#N)n2CCN1CCN(C(=O)N(C)C)CC1 [Compound 376] |
| < 100 | Cc1c(CN2CCC(Nc3ncnc4sc(CC(F)(F)F)cc34)CC2)ccc2c1cc(C#N)n2CCO [Compound 299] |
| < 100 | Cc1nn[nH]c1Cn1c(C#N)cc2c(C)c(CN3CCC(Nc4ncnc5sc(CC(F)(F)F)cc45)CC3)ccc21 [Compound 327] |
| 100 to 500 | COc1ccc(CN2CCC(CNc3ncnc4sc(CC(F)(F)F)cc34)CC2)c(Cl)c1 [Compound 257] |
| < 100 | Cc1c(CN2CC[C@@H](Nc3ncnc4sc(CC(F)(F)F)cc34)[C@H](NCCc3ccccc3)C2)ccc2c1cc(C#N)n2CC(N)=O [Compound 288] |
